Data reported in PMC8881063 (Journal of Enzyme Inhibition and Medicinal Chemistry, 2022).
“Also recorded” adds a separate entry of the source.

Tests used:
[1] = molecular target: T1, recombinant human MAO-A (Homo sapiens, UniProt P21397); test: hMAO-A inhibition, spectrophotometric assay; format: biochemical
T1 sequence (P21397 1-527): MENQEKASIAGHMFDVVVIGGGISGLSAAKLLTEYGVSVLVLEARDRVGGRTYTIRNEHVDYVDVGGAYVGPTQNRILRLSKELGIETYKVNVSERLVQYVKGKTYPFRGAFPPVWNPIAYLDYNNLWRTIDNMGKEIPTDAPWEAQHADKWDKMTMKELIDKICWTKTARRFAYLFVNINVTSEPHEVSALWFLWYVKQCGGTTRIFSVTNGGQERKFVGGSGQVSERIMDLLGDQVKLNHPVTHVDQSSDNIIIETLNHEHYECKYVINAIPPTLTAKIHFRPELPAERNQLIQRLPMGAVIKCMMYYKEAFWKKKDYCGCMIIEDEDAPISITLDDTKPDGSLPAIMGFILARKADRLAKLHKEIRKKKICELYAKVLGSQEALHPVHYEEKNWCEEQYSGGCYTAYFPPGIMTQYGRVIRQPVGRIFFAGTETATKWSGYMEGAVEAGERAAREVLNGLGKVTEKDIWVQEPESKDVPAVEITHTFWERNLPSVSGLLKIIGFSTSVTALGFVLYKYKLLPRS
Text: Two different MAO isoforms are known.

[2] = molecular target: T2, MAO-B (Homo sapiens, UniProt P27338); test: hMAO-B inhibition, spectrophotometric assay
T2 sequence (P27338 1-520): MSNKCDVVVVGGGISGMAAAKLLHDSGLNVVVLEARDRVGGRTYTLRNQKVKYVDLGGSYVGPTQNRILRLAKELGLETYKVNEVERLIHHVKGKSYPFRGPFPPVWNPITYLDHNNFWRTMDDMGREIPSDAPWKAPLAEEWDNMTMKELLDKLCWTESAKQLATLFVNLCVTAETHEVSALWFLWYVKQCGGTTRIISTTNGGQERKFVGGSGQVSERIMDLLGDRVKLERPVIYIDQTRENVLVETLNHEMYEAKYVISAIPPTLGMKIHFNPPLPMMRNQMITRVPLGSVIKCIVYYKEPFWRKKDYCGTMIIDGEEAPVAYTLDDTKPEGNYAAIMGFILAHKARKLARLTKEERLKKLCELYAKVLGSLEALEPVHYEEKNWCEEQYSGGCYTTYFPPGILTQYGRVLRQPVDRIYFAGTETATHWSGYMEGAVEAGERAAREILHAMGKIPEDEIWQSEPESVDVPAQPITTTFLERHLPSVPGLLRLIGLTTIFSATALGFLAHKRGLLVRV
Description: The inhibitory activities of the compounds against hMAO-A and hMAO-B enzymes were evaluated referring to a previously described method (Supporting information)[49].

[3] = molecular target: T2, MAO-B; test: MAO-B inhibition reversibility testing (washing); format: biochemical; conditions: enzymatic activity after washing
Description: (§1) To get insights into MAO-B inhibition reaction by compounds 1p and 1y, a kinetic study and reversibility testing were conducted. As illustrated in Figure 4(A,B), Michaelis–Menten graphs were constructed using different concentrations of compounds 1p and 1y employing different concentrations benzylamine as a substrate.
(§2) Kinetics of the inhibition of MAO-B and testing of reversibility were conducted according to literature-reported protocols[59] as indicated in the Supporting information.

[4] = system: BV2 cells; test: BV2 cell viability, WST-1 assay; format: cell-based; conditions: doses of 1, 10, 30 and 50 µM
Text: Promising antineurodegenrative candidate molecules should not impair viability of CNS cells. Microglia are critical cells within CNS involved in microglia–neuron communications and are responsible for maintenance of brain integrity and health[61]^,[62]. However, under neuroinflammatory conditions, aberrant activation of microglia contributes to neurodegeneration and disease progression. In this regard, suppression of the abnormal activation while maintenance of viability of microglia is important considerations. […] The viability assay was carried out using the water-soluble tetrazolium reagent WST-1 which eliminates the formazan dissolution step requested in case of MTT[65] employing multiple doses of 1, 10, 30, and 50 µM. […] In lieu of this, it might be inferred that these compounds showing effective inhibition of MAO-B activity and triggering no impairment of microglia viability are good candidates might be advanced for further evaluation towards the development of multifunctional molecules for neurodegenerative diseases such as PD.
The impact of the compounds on the viability of cells was performed by the well-known WST-1 assay method as described in the Supporting information.

[5] = molecular target: T2, MAO-B; test: MAO-B inhibition kinetic study (Michaelis–Menten, Lineweaver–Burk); format: biochemical
Description: as §1, §2

[6] = system: LPS-treated BV2 cells (PGE2 production); test: LPS-induced production of PGE2 in BV2 cells; format: cell-based; conditions: different concentrations, Figure 3(B)
Description: (§3) Neuroinflammation is a crucial component in neurodegenerative diseases. Chronic activation of microglia, which are the brain-resident form of macrophages, results in sustained production of several proinflammatory mediators including glial NO, PGE2, and others molecules that are implicated in multiple neurodegenerative diseases. […] In this regard, LPS-treated BV2 cells were incubated with or without different concentrations of each compound. […] Based on collective results of antineuroinflammatory activity evaluation, in conjugation with above-conducted MAO inhibitions’ assays, compound 1p might be claimed as a promising lead compound eliciting polypharmacological effects combining inhibition of neuroinflammation and MAO-B activity; both processes are crucial components of neurodegenerative diseases such as PD.
(§4) The abilities of compounds to inhibit the induced production of NO and PGE2 were assessed by well-known protocol as indicated in the Supporting information.

[7] = system: LPS-treated BV2 cells (NO production); test: LPS-induced production of nitric oxide in BV2 cells; format: cell-based; conditions: different concentrations, Figure 3(A)
Description: as §3, §4

- IC50 [1]: > 100000 nM
- inhibition at 10 µM ([1]; single dose concentration of 10 µM): -1.53%
- IC50 [2]: 171 nM
- Selectivity index for inhibition of MAO-B ([2]; IC50 MAO-A divided by IC50 MAO-B): >583
- inhibition at 10 µM ([2]; read-out: MAO-B % Inhibition, single dose concentration of 10 µM): 96.7%
- Reversibility of MAO-B inhibition [3]: washing restored the enzymatic activity
- Ki ([5]; benzylamine as substrate): 36.5 nM
Compound: COc1ccc(/C=C2\Oc3cc(O)ccc3C2=O)c(OC)c1OC [Compound 1p]
- Impact on viability of BV2 cells [4]: none of the tested concentrations
- Type of MAO-B inhibition ([5]; Lineweaver–Burk plots): competitive inhibitors; also recorded: Competitive inhibition
- Effect on LPS-induced PGE2 production by BV2 cells [6]: effectively suppressed the induced-PGE2 production
- Effect on LPS-induced NO production by BV2 cells [7]: significant inhibition of NO production
